PubChem BioAssay (NCI)
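Exposure lasted 48 hours, with cells grown in 96-well plates and compounds tested at five concentrations. GI50 = concentration required for 50% inhibition of growth. TGI denotes the concentration required for complete inhibition of growth.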

Key:
Experiment in all cases: growth of human tumour cells (NCI), 48 h
M14 melanoma = system: M14 melanoma
NCI-H23 lung = system: NCI-H23 lung
NCI-H460 lung = system: NCI-H460 lung
ACHN renal = system: ACHN renal
A498 renal = system: A498 renal
IGROV1 ovarian = system: IGROV1 ovarian
SNB-19 CNS = system: SNB-19 CNS
UACC-62 melanoma = system: UACC-62 melanoma
HCC-2998 colon = system: HCC-2998 colon
OVCAR-3 ovarian = system: OVCAR-3 ovarian
HCT-116 colon = system: HCT-116 colon
MALME-3M melanoma = system: MALME-3M melanoma
HT29 colon = system: HT29 colon
BT-549 breast = system: BT-549 breast
SK-OV-3 ovarian = system: SK-OV-3 ovarian
SW-620 colon = system: SW-620 colon
CCRF-CEM leukemia = system: CCRF-CEM leukemia
HS 578T breast = system: HS 578T breast
OVCAR-4 ovarian = system: OVCAR-4 ovarian
HOP-92 NSCLC = system: HOP-92 NSCLC
TK-10 renal = system: TK-10 renal
SF-539 CNS = system: SF-539 CNS
NCI-H522 lung = system: NCI-H522 lung
U251 CNS = system: U251 CNS
SF-268 CNS = system: SF-268 CNS
UACC-257 melanoma = system: UACC-257 melanoma
SN12C renal = system: SN12C renal
NCI/ADR-RES ovarian = system: NCI/ADR-RES ovarian
MDA-MB-435 = system: MDA-MB-435
SR leukemia = system: SR leukemia
RPMI-8226 leukemia = system: RPMI-8226 leukemia
RXF 393 renal = system: RXF 393 renal
CAKI-1 renal = system: CAKI-1 renal
NCI-H226 lung = system: NCI-H226 lung
SK-MEL-28 melanoma = system: SK-MEL-28 melanoma
786-0 renal = system: 786-0 renal
EKVX NSCLC = system: EKVX NSCLC
LOX IMVI melanoma = system: LOX IMVI melanoma
HL-60(TB) leukemia = system: HL-60(TB) leukemia
OVCAR-8 ovarian = system: OVCAR-8 ovarian
PC-3 prostate = system: PC-3 prostate
COLO 205 colon = system: COLO 205 colon
MOLT-4 leukemia = system: MOLT-4 leukemia
K-562 leukemia = system: K-562 leukemia
T-47D breast = system: T-47D breast
SF-295 CNS = system: SF-295 CNS
OVCAR-5 ovarian = system: OVCAR-5 ovarian
MDA-MB-231 breast = system: MDA-MB-231 breast
DU-145 prostate = system: DU-145 prostate
MCF7 breast = system: MCF7 breast
HOP-62 NSCLC = system: HOP-62 NSCLC
HCT-15 colon = system: HCT-15 colon
KM12 colon = system: KM12 colon
UO-31 renal = system: UO-31 renal
A549 NSCLC = system: A549 NSCLC
SK-MEL-5 melanoma = system: SK-MEL-5 melanoma

O=C(/C=C\Sc1ccccn1)c1cccc(Br)c1
GI50 (M14 melanoma): 15 µM | TGI (M14 melanoma): 43.4 µM | GI50 (NCI-H23 lung): 10.8 µM | TGI (NCI-H23 lung): 25.1 µM | GI50 (NCI-H460 lung): 9.41 µM | TGI (NCI-H460 lung): 29.6 µM | GI50 (ACHN renal): 1.65 µM | TGI (ACHN renal): 3 µM | GI50 (A498 renal): 19.5 µM | TGI (A498 renal): 36.5 µM | GI50 (IGROV1 ovarian): 16.5 µM | TGI (IGROV1 ovarian): 50.4 µM | GI50 (SNB-19 CNS): 39.1 µM | TGI (SNB-19 CNS): > 100 µM | GI50 (UACC-62 melanoma): 11.7 µM | TGI (UACC-62 melanoma): 24.5 µM | GI50 (HCC-2998 colon): 3.9 µM | TGI (HCC-2998 colon): 15 µM | GI50 (OVCAR-3 ovarian): 5.54 µM | TGI (OVCAR-3 ovarian): 24.2 µM | GI50 (HCT-116 colon): 1.95 µM | TGI (HCT-116 colon): 3.85 µM | GI50 (MALME-3M melanoma): 2.83 µM | TGI (MALME-3M melanoma): 8.97 µM | GI50 (HT29 colon): 3.46 µM | TGI (HT29 colon): > 100 µM | GI50 (BT-549 breast): 7.29 µM | TGI (BT-549 breast): 32 µM | GI50 (SK-OV-3 ovarian): > 100 µM | TGI (SK-OV-3 ovarian): > 100 µM | GI50 (SW-620 colon): 2.82 µM | TGI (SW-620 colon): 8.41 µM | GI50 (CCRF-CEM leukemia): 3 µM | TGI (CCRF-CEM leukemia): > 100 µM | GI50 (HS 578T breast): 19.5 µM | TGI (HS 578T breast): 83.3 µM | GI50 (OVCAR-4 ovarian): 5.71 µM | TGI (OVCAR-4 ovarian): > 100 µM | GI50 (HOP-92 NSCLC): 2.64 µM | TGI (HOP-92 NSCLC): 7.85 µM | GI50 (TK-10 renal): 3.25 µM | TGI (TK-10 renal): 12.2 µM | GI50 (SF-539 CNS): 8.15 µM | TGI (SF-539 CNS): 25 µM | GI50 (NCI-H522 lung): 2.28 µM | TGI (NCI-H522 lung): 5.84 µM | GI50 (U251 CNS): 10.2 µM | TGI (U251 CNS): 21.8 µM | GI50 (SF-268 CNS): 6.53 µM | TGI (SF-268 CNS): 26.4 µM | GI50 (UACC-257 melanoma): 21.2 µM | TGI (UACC-257 melanoma): 43.4 µM | GI50 (SN12C renal): 10.2 µM | TGI (SN12C renal): 24.3 µM | GI50 (NCI/ADR-RES ovarian): 8.8 µM | TGI (NCI/ADR-RES ovarian): > 100 µM | GI50 (MDA-MB-435): 9.12 µM | TGI (MDA-MB-435): 77.9 µM | GI50 (SR leukemia): 1.68 µM | TGI (SR leukemia): 3.79 µM | GI50 (RPMI-8226 leukemia): 0.0787 µM | TGI (RPMI-8226 leukemia): > 100 µM | GI50 (RXF 393 renal): 2.64 µM | TGI (RXF 393 renal): 8.62 µM | GI50 (CAKI-1 renal): 3.99 µM | TGI (CAKI-1 renal): 17.2 µM | GI50 (NCI-H226 lung): 2.32 µM | TGI (NCI-H226 lung): 5.46 µM | GI50 (SK-MEL-28 melanoma): 8.65 µM | TGI (SK-MEL-28 melanoma): > 100 µM | GI50 (786-0 renal): 2.67 µM | TGI (786-0 renal): 6.48 µM | GI50 (EKVX NSCLC): 19.3 µM | TGI (EKVX NSCLC): 35.7 µM | GI50 (LOX IMVI melanoma): 1.69 µM | TGI (LOX IMVI melanoma): 3.12 µM | GI50 (HL-60(TB) leukemia): 2.25 µM | TGI (HL-60(TB) leukemia): 6.32 µM | GI50 (OVCAR-8 ovarian): 3.53 µM | TGI (OVCAR-8 ovarian): > 100 µM | GI50 (PC-3 prostate): 7.68 µM | TGI (PC-3 prostate): 22.5 µM | GI50 (COLO 205 colon): 5.27 µM | TGI (COLO 205 colon): > 100 µM | GI50 (MOLT-4 leukemia): 1.6 µM | TGI (MOLT-4 leukemia): 4.23 µM | GI50 (K-562 leukemia): 2.23 µM | TGI (K-562 leukemia): 6.63 µM | GI50 (T-47D breast): 7.54 µM | TGI (T-47D breast): > 100 µM | GI50 (SF-295 CNS): 16 µM | TGI (SF-295 CNS): 39.6 µM | GI50 (OVCAR-5 ovarian): 15 µM | TGI (OVCAR-5 ovarian): 29.5 µM | GI50 (MDA-MB-231 breast): 2.35 µM | TGI (MDA-MB-231 breast): 5.96 µM | GI50 (DU-145 prostate): 16.3 µM | TGI (DU-145 prostate): 30.7 µM | GI50 (MCF7 breast): 1.77 µM | TGI (MCF7 breast): 6.18 µM | GI50 (HOP-62 NSCLC): 17.4 µM | TGI (HOP-62 NSCLC): 33.7 µM | GI50 (HCT-15 colon): 1.4 µM | TGI (HCT-15 colon): 3.23 µM | GI50 (KM12 colon): 13.4 µM | TGI (KM12 colon): 28.8 µM | GI50 (UO-31 renal): 5.15 µM | TGI (UO-31 renal): 23.1 µM | GI50 (A549 NSCLC): 23 µM | TGI (A549 NSCLC): 80.3 µM | GI50 (SK-MEL-5 melanoma): 14.1 µM | TGI (SK-MEL-5 melanoma): 28 µM
